Article PMC7268545, “Development of a QPatch-Automated Electrophysiology Assay for Identifying TMEM16A Small-Molecule Inhibitors” (Assay and Drug Development Technologies, 2020)

Target: T1, abc isoform of TMEM16A (Homo sapiens, UniProt Q5XXA6, DEL476-501)
T1 construct: expressed in transfected cells; host or cells: HEK293T
T1 sequence (Q5XXA6 with tags, fused parts or gaps isoform Q5XXA6-5 DEL539-564): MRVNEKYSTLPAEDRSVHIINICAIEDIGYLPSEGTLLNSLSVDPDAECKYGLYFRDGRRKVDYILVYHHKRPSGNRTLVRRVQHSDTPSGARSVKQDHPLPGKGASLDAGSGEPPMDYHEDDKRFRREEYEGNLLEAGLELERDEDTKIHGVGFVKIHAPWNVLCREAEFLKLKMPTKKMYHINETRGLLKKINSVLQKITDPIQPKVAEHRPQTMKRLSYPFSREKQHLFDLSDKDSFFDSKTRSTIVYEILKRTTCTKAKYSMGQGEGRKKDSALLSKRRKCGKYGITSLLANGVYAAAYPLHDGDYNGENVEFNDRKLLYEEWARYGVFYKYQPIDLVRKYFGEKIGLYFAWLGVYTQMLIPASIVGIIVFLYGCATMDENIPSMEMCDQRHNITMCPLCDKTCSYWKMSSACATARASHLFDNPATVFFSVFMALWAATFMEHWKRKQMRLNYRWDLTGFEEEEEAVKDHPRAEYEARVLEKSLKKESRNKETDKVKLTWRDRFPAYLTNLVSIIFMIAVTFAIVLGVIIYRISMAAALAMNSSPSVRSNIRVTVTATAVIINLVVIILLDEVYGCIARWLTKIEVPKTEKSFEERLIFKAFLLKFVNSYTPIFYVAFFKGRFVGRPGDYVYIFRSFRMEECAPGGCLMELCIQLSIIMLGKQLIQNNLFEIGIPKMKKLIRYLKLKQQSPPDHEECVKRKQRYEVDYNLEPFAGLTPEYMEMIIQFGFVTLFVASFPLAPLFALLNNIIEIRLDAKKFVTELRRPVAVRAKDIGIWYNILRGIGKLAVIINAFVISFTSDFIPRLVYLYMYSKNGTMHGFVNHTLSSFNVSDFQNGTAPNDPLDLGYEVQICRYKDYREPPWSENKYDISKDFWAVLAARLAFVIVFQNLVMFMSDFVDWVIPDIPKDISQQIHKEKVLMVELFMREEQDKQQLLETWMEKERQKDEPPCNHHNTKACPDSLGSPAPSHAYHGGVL
Test: QPatch-48 assay on HEK293T cell line stably expressing the abc isoform
Format: cell-based
Conditions: 30 μM
Method: Using the QPatch-48, we have developed a robust assay for the assessment of TMEM16A small-molecule inhibitors. Many optimization steps were performed to determine the optimal cell culture conditions, internal calcium level, holding potential and voltage protocol, and maximum duration of the assay. It was necessary to control for the culture conditions of the cells and strictly adhere to the cell preparation procedure to obtain high-quality seals. In addition, while the external solution can be used throughout the day, the internal solution should be replaced every 2 h to ensure that the ATP is fresh. Best practices also require solutions to be made weekly and for the osmolarity and pH to be measured accurately. Having met these conditions, the assay results in large currents, averaging a peak current of 6 nA, while maintaining outward rectification that is characteristic of the TMEM16A channel. The benchmark TMEM16A inhibitors that were tested during the validation efforts generated reproducible and expected IC50 values. […] Another HEK293T cell line that stably expressed the abc isoform of TMEM16A also formed high-quality seals and produced large currents.

SMILES: CCc1oc2ccccc2c1C(=O)c1cc(Br)c(O)c(Br)c1 [Benzbromarone]
- block of currents: fully blocked
